Drawing on patent US20210246122A1, “Triazine Compounds and Uses Thereof” (Aduro Biotech, Inc., priority 2018, published 2021), this text covers IC50 for 15 compounds.

Test [1] deals with T1, Human cGAS amino acids 155-522 (Homo sapiens, UniProt Q8N884).
T1 construct: hexahistidine tag (N, cleaved yes); made in house; host or cells: E. coli BL21 DE3 Rosetta 2
Briefly: cGAS activity assay (DNA-activated cGAS, remaining ATP measured by Kinase-Glo Max luciferase assay). The format is biochemical. The conditions noted are these: 300 nM purified cGAS, 1 μM dsDNA, 250 μM ATP, 100 μM GTP, 37° C. for 1.25 hours. Here is the method: IC50 values were determined as follows:
Human cGAS sequence encoding amino acids 155-522 was cloned into a pET (EMD Millipore) based expression plasmid. The resulting construct contained a tandem N-terminal hexahistidine tag, maltose binding protein fusion followed by a tobacco etch virus protease cleavable linker preceding cGAS amino acids 155-522.
Construct sequence: Amino acids 155-522, Human cGAS
Protein was expressed and purified from E. coli BL21 DE3 Rosetta 2 (EMD Millipore) cells using standard techniques. Cells were grown in 2× yeast extract tryptone medium and expression was initiated via the addition of isopropyl β-D-1-thiogalactopyranoside. Expression proceeded overnight at 18° C. Cells were harvested by centrifugation and subsequently lysed via sonication. Insoluble fraction was removed by centrifugation. Maltose binding protein (MBP) fusion proteins were purified on a dextrin sepharose column (GE Healthcare) and the MBP tag was removed using tobacco etch virus protease overnight during dialysis. Protein was further purified on a heparin column (GE Healthcare) and eluted using a NaCl gradient. Column fraction were pooled and further purified on a Superdex 75 gel filtration column (GE Healthcare). Protein was quantified using 280 nm absorbance. Protein was then flash frozen in liquid nitrogen and stored at −80° C. until use.
Potential antagonists were diluted in 100% dimethyl sulfoxide and added to the reaction. Final dimethyl sulfoxide concentration was 5%. The compounds were tested from 1 μM with either 3- or 4-fold serial dilutions down to 0.000051 or 0.000004 μM respectively.
Two complementary DNA oligos (IDT DNA) were annealed by slow cooling from 95° C. The resulting double stranded DNA was used to activate cGAS.
Reactions were performed at 37° C. for 1.25 hours. Reaction buffer: 20 mM Tris HCl pH 9, 100 mM NaCl, 5 mM MgCl2, 0.1 mg/ml bovine gamma globulin, 250 μM adenosine triphosphate, 100 μM guanosine triphosphate, 0.5 mM Tris(2-carboxyethyl)phosphine hydrochloride, 1 μM double stranded DNA and 300 nM purified cGAS protein.
Reactions were stopped and ATP levels in the reaction were measured using a luciferase based assay. Promega Kinase-Glo Max Assay. Luminescence was measured on a plate reader (Molecular Devices). Values were normalized to control wells lacking compound.
On the technique in general: Kinase-Glo reads ATP consumption through a luciferase reaction.

The subject of test [2] is cGAS/STING pathway. The experiment in a line: THP1 cell-based cGAS/STING pathway activity assay (luciferase reporter linked to IRF-3 activation). Conditions: Homo sapiens, THP-1; THP1 cells, IRF-3 linked luciferase reporter. Here is the method: A cellular assay can be used to assess the compounds of the invention for their ability to inhibit the cGAS/STING pathway. Cells that express a luciferase-based reporter that is linked to IRF-3 activation are used to determine response as a function of compound concentration. Such an assay is described in Vincent et al., Nature Communications 2017, 8(1):750, doi: 10.1038/s41467-017-00833-9. Compounds of the invention were assessed using similar assay methods in a THP1 cell assay to generate IC50 values as provided in the following Table 8. In this table, activity level “A” indicates an IC50 value less than 20 μM, “B” indicates an IC50 value between 20 and 100 μM, and “C” indicates an IC50 value above the upper limit of the assay (100 μM), or where an IC50 value could not be generated from the data.
(In general: Reporter assays use an easily measured gene product as a stand-in for the process of interest.)

T1 sequence (Q8N884 157-522): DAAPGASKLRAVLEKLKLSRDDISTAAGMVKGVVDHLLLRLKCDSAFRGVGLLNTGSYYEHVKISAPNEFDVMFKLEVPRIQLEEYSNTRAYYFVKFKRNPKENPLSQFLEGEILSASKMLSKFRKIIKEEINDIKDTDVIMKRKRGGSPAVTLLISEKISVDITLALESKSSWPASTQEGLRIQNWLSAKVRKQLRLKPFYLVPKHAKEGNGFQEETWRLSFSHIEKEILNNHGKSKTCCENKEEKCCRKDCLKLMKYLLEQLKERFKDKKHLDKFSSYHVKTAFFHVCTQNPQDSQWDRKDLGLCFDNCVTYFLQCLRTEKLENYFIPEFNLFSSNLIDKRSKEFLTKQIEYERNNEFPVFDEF

In the case of `COCCNC(=O)[C@H](Cc1ccc(C#N)cc1)Nc1nc(NCc2nc3cc(F)ccc3[nH]2)nc(Nc2cccc(CN3CCN(C(=O)c4nccnc4O)CC3)c2)n1` [TA1018, (S)-3-(4-cyanophenyl)-2-((4-(((5-fluoro-1H-benzo[d]imidazol-2-yl)methyl)amino)-6-((3-((4-(3-hydroxypyrazine-2-carbonyl)piperazin-1-yl)methyl)phenyl)amino)-1,3,5-triazin-2-yl)amino)-N-(2-methoxyethyl)propanamide], the results for the IC50 in test [1] and in test [2] were < 20 µM and > 100 µM, respectively.
For `COC(=O)[C@H](Cc1ccc(C#N)cc1)Nc1nc(NCc2nc3cc(F)ccc3[nH]2)nc(Nc2cccc(CN3CCN(C(=O)c4nccnc4O)CC3)c2)n1` [TA1020, methyl (S)-3-(4-cyanophenyl)-2-((4-(((5-fluoro-1H-benzo[d]imidazol-2-yl)methyl)amino)-6-((3-((4-(3-hydroxypyrazine-2-carbonyl)piperazin-1-yl)methyl)phenyl)amino)-1,3,5-triazin-2-yl)amino)propanoate] the same measures were < 20 µM and > 100 µM.
For `CN(C)C(=O)[C@H](Cc1ccc(C#N)cc1)Nc1nc(NCc2nc3cc(F)ccc3[nH]2)nc(Nc2cccc(CN3CCN(C(=O)c4nccnc4O)CC3)c2)n1` [TA1021, (S)-3-(4-cyanophenyl)-2-((4-(((5-fluoro-1H-benzo[d]imidazol-2-yl)methyl)amino)-6-((3-((4-(3-hydroxypyrazine-2-carbonyl)piperazin-1-yl)methyl)phenyl)amino)-1,3,5-triazin-2-yl)amino)-N,N-dimethylpropanamide] the same measures were < 20 µM and > 100 µM.
Regarding `CNC(=O)[C@H](Cc1ccc(C#N)cc1)Nc1nc(NCc2nc3cc(F)ccc3[nH]2)nc(Nc2cccc(CN3CCN(C(=O)c4nccnc4O)CC3)c2)n1` [TA1024, (S)-3-(4-cyanophenyl)-2-((4-(((5-fluoro-1H-benzo[d]imidazol-2-yl)methyl)amino)-6-((3-((4-(3-hydroxypyrazine-2-carbonyl)piperazin-1-yl)methyl)phenyl)amino)-1,3,5-triazin-2-yl)amino)-N-methylpropanamide], the IC50 in test [1] was < 20 µM; in test [2], > 100 µM.
For the compound `COCCOCCNC(=O)[C@H](Cc1ccc(C#N)cc1)Nc1nc(NCc2nc3cc(F)ccc3[nH]2)nc(Nc2cccc(CN3CCN(C(=O)c4nccnc4O)CC3)c2)n1` [TA1025, (S)-3-(4-cyanophenyl)-2-((4-(((5-fluoro-1H-benzo[d]imidazol-2-yl)methyl)amino)-6-((3-((4-(3-hydroxypyrazine-2-carbonyl)piperazin-1-yl)methyl)phenyl)amino)-1,3,5-triazin-2-yl)amino)-N-(2-(2-methoxyethoxy)ethyl)propanamide], the IC50 is < 20 µM in test [1] and > 100 µM in test [2].
As to `COC(=O)[C@@H](Cc1ccc(C#N)cc1)Nc1nc(NCc2nc3cc(F)ccc3[nH]2)nc(Nc2cccc(CN3CCN(C(=O)c4nccnc4O)CC3)c2)n1` [TA1027, methyl (R)-3-(4-cyanophenyl)-2-((4-(((5-fluoro-1H-benzo[d]imidazol-2-yl)methyl)amino)-6-((3-((4-(3-hydroxypyrazine-2-carbonyl)piperazin-1-yl)methyl)phenyl)amino)-1,3,5-triazin-2-yl)amino)propanoate], the IC50 was < 20 µM in test [1] and > 100 µM in test [2].
Take `COC(=O)[C@H](Cc1ccc(C#N)cc1)Nc1nc(Nc2cccc(CN3CCN(C(=O)c4nccnc4O)CC3)c2)nc(N(C)CCc2nc3ccc(OC)cc3[nH]2)n1` [TA1053, methyl (S)-3-(4-cyanophenyl)-2-((4-((3-((4-(3-hydroxypyrazine-2-carbonyl)piperazin-1-yl)methyl)phenyl)amino)-6-((2-(6-methoxy-1H-benzo[d]imidazol-2-yl)ethyl)(methyl)amino)-1,3,5-triazin-2-yl)amino)propanoate]: the IC50 in test [1] was < 20 µM; in test [2] it was > 100 µM.
For the compound `COC(=O)[C@H](CC1CCCCC1)Nc1nc(NCc2nc3cc(F)ccc3[nH]2)nc(Nc2cccc(CN3CCN(C(=O)c4nccnc4O)CC3)c2)n1` [TA1072, methyl (S)-3-cyclohexyl-2-((4-(((5-fluoro-1H-benzo[d]imidazol-2-yl)methyl)amino)-6-((3-((4-(3-hydroxypyrazine-2-carbonyl)piperazin-1-yl)methyl)phenyl)amino)-1,3,5-triazin-2-yl)amino)propanoate], the IC50 in test [1] is < 20 µM.
As to `Cc1cc2nc(CN(C)c3nc(Nc4cccc(CN5CCN(S(=O)(=O)c6cnn(C)c6C)CC5)c4)nc(N[C@@H](Cc4ccc(C#N)cc4)C(=O)N(C)C)n3)[nH]c2cc1C` [TA1073, (S)-3-(4-cyanophenyl)-2-((4-(((5,6-dimethyl-1H-benzo[d]imidazol-2-yl)methyl)(methyl)amino)-6-((3-((4-((1,5-dimethyl-1H-pyrazol-4-yl)sulfonyl)piperazin-1-yl)methyl)phenyl)amino)-1,3,5-triazin-2-yl)amino)-N,N-dimethylpropanamide], the IC50 in test [1] is > 250 µM.
On the same count and under the same terms, to `COC(=O)[C@H](Cc1ccc(C#N)cc1)Nc1nc(Nc2cccc(CN3CCN(C(=O)c4nccnc4O)CC3)c2)nc(OC)n1` [TA1074, methyl (S)-3-(4-cyanophenyl)-2-((4-((3-((4-(3-hydroxypyrazine-2-carbonyl)piperazin-1-yl)methyl)phenyl)amino)-6-methoxy-1,3,5-triazin-2-yl)amino)propanoate] belongs > 250 µM.
Take `COC(=O)[C@H](Cc1ccc(C#N)cc1)Nc1nc(NCc2nc3cc(F)ccc3[nH]2)nc(Nc2cccc(CN3CCN(C(C)=O)CC3)c2)n1` [TA1075, methyl (S)-2-((4-((3-((4-acetylpiperazin-1-yl)methyl)phenyl)amino)-6-(((5-fluoro-1H-benzo[d]imidazol-2-yl)methyl)amino)-1,3,5-triazin-2-yl)amino)-3-(4-cyanophenyl)propanoate]: in test [1], the IC50 is > 250 µM.
With `COC(=O)[C@H](Cc1ccc(C#N)cc1)Nc1nc(Nc2cccc(CN3CCN(C(C)=O)CC3)c2)nc(N(Cc2nc3cc(F)ccc3[nH]2)C(C)=O)n1` [TA1076, methyl (S)-2-((4-((3-((4-acetylpiperazin-1-yl)methyl)phenyl)amino)-6-(N-((5-fluoro-1H-benzo[d]imidazol-2-yl)methyl)acetamido)-1,3,5-triazin-2-yl)amino)-3-(4-cyanophenyl)propanoate], the IC50 in test [1] was > 250 µM.
Still for that read-out and setting: to `COC(=O)[C@H](Cc1ccc(C#N)cc1)Nc1nc(Nc2cccc(CN3CCN(C=O)CC3)c2)nc(OC)n1` [TA1077, methyl (S)-3-(4-cyanophenyl)-2-((4-((3-((4-formylpiperazin-1-yl)methyl)phenyl)amino)-6-methoxy-1,3,5-triazin-2-yl)amino)propanoate] belongs > 250 µM.
In the case of `COC(=O)[C@H](Cc1ccc(C#N)cc1)Nc1nc(NCc2nc3cc(F)ccc3[nH]2)nc(Nc2cccc(CN3CCN(C(=O)c4nccnc4OC)CC3)c2)n1` [TA1078, methyl (S)-3-(4-cyanophenyl)-2-((4-(((5-fluoro-1H-benzo[d]imidazol-2-yl)methyl)amino)-6-((3-((4-(3-methoxypyrazine-2-carbonyl)piperazin-1-yl)methyl)phenyl)amino)-1,3,5-triazin-2-yl)amino)propanoate], the half-inhibitory concentration (IC50) in test [1] is > 250 µM.
On the same count and under the same terms, to `COC(=O)[C@H](Cc1ccc(C#N)cc1)Nc1nc(NCc2nc3cc(F)ccc3[nH]2)nc(Nc2cccc(CN3CCN(C(=O)C4CCN(S(C)(=O)=O)CC4)CC3)c2)n1` [TA1079, methyl (S)-3-(4-cyanophenyl)-2-((4-(((5-fluoro-1H-benzo[d]imidazol-2-yl)methyl)amino)-6-((3-((4-(1-(methylsulfonyl)piperidine-4-carbonyl)piperazin-1-yl)methyl)phenyl)amino)-1,3,5-triazin-2-yl)amino)propanoate] belongs > 250 µM.

The term IC50 denotes the point on the concentration scale where inhibition reaches its midpoint. High values mean lower potency, low ones higher potency.
